Paper PMC4076079, “Selective inhibitors of a PAF biosynthetic enzyme lysophosphatidylcholine acyltransferase 2” (Journal of Lipid Research, 2014)

Key:
PLA2 = PLA2 assay; assay type: biochemical, mouse; conditions: 20 μM compound, soluble protein fraction of peritoneal macrophages; data not shown
Description: PAF-AH and PLA2 activities were determined as previously described ([3]). Briefly, a soluble protein fraction of peritoneal macrophages was incubated with 20 μM of each compound at 37°C for 30 min in a total volume of 0.1 ml. For the PAF-AH assay, the reaction mixture contained 2.5 μg protein, 50 mM Tris-HCl (pH 7.4), 5 mM EDTA, 5 mM 2-mercaptoethanol, and 1 μM d4-PAF. For the PLA2 assay, 10 μg protein was incubated in buffer containing 100 mM Tris-HCl (pH 7.4), 1 mg/ml BSA, 4 mM CaCl2, 1 mM DTT, and 2 μM 16:0/20:4 alkyl-PC. A cytosolic PLA2 inhibitor, pyrrophenone (Sigma-Aldrich), was used as a positive control. The reactions were stopped with 0.27 ml of chloroform/methanol (1:2, v/v), followed by the sequential addition of an internal standard (17:0 LPC or d4-lyso-PAF), 0.11 ml chloroform, and 0.1 ml water. Lipids were extracted using the Bligh and Dyer method ([26]). The PAF-AH and PLA2 activities were measured by detecting d4-lyso-PAF and nonlabeled lyso-PAF, respectively, using LC-MS/MS.

hLPCAT2 = target: T1, hLPCAT2 (Homo sapiens, UniProt Q7L5N7); assay: kinetic analysis of lyso-PAFAT activity; assay type: biochemical; conditions: lyso-PAFAT activity of hLPCAT2, competitive with acetyl-CoA; Dixon plot, Prism; mcPAF-stimulated microsomes; read-out: Inhibition constant (apparent Ki value)
T1 construct: expressed in transfected cells; host or cells: CHO-S-PAFR cells (microsomal fraction), with or without mcPAF stimulation
T1 sequence (Q7L5N7 1-544): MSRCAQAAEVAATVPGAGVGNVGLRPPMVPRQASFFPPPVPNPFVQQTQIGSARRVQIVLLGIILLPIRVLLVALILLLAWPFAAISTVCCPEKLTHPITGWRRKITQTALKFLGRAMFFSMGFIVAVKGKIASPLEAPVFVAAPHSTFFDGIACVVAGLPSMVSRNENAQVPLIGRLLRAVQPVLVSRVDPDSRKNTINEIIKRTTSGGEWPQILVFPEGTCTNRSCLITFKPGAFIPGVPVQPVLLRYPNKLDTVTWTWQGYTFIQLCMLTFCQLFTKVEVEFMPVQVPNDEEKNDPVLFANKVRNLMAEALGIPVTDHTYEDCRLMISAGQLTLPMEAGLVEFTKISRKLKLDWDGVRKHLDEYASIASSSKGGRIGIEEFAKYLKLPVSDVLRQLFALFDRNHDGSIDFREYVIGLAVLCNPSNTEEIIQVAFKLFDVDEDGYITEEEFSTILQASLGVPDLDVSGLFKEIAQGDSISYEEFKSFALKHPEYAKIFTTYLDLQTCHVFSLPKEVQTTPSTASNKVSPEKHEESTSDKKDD
Description: Microsomal protein fractions (0.5 μg) supplemented with the indicated compound concentrations were added to the reaction mixture containing 100 mM Tris-HCl (pH 7.4), 1 μM CaCl2, 0.015% Tween-20, and two substrates. For acetyltransferase activity, the substrates were 1 mM acetyl-CoA and 5 μM d4-lyso-PAF; for the acyltransferase activity of LPCAT1 or LPCAT2, the substrates were, respectively, palmitoyl-CoA and d31-16:0 LPC or arachidonoyl-CoA and d4-lyso-PAF (all 5 μM). Each lysophospholipid contained fatty acid at the sn-1 position. After incubation at 37°C for 5 min, the reactions were stopped by adding 300 μl methanol containing 17:0 LPC or 14:0/14:0 PC as an internal standard. Deuterium-labeled products were analyzed by LC-MS/MS (Waters, Milford, MA and Thermo Scientific, Waltham, MA).
To investigate the mechanism by which TSI-01 inhibited lyso-PAFAT activity of hLPCAT2, kinetic analysis was performed. CHO-S-PAFR cells overexpressing hLPCAT2 were stimulated with or without mcPAF for 30 s and analyzed for lyso-PAFAT activity in the microsomal fraction. […] Inhibition constant (apparent Ki value) of TSI-01 was also calculated as 30–40 nM using Prism software (Fig. 6D).
Fig. 6. Effects of TSI-01 on kinetics of LPCAT2 enzymatic activity. […]

Structure (SMILES): CC(C)OC(=O)c1ccc(N2C(=O)C(Cl)=C(Cl)C2=O)cc1 [TSI-01, propan-2-yl 4-(3,4-dichloro-2,5-dioxopyrrol-1-yl)benzoate]
- PLA2 activity (PLA2): not PLA2 activity
- Ki (hLPCAT2): 30 to 40 nM
